For data set [1], the system named is L1210 mouse leukemia cells. Description: formation of colonies of L1210 leukemia cells in soft agar. Format: cell-based. As to conditions: Mus musculus. How it is done: The cytostatic activity of the compounds according to the invention was tested using L1210 mouse leukemia cells. This made use of the formation of colonies of L1210 leukemia cells in agar plates. This method is used to detect the effect of the test substances on the growth behavior of the cells over 1 hour or over several generations. With a cell cycle lasting 10-12 hours, this means that about 14 consecutive generations are observed in a test lasting 7 days. In this test, the substances having cytostatic activity according to the invention bring about a reduction in the number of colonies to be observed by comparison with an untreated control sample.
500 leukemia cells per plate were incubated with various concentrations of the test substance at 37° C. for 1 hour. These cells were then washed twice with McCoy5A medium and finally, after addition of 0.3% agar, poured into Petri dishes. Controls were incubated only with fresh medium. In some cases, in place of the incubation for one hour, various concentrations of test substances were mixed with the upper agar layer in order in this way to achieve continuous exposure of the cells throughout the incubation time. After the agar had solidified, the plates were incubated at 37° C. in an incubator for 7 days (5% by vol. CO2, 95% relative humidity). The number of colonies with a diameter of more than 60 μm which had formed was then counted. The results have been given as the number of colonies in treated agar plates as a percentage of the untreated control. The IC50 was determined, as a measure of the activity of the substance, from the dose-effect plot obtained in this way.

The nature of data set [2]: approximative toxicity, intraperitoneal (LD50). As to conditions: in vivo, ip. An excerpt:
*3xip,q3d: three intraperitoneal administrations with an interval of thre
1xip: one intraperitoneal administration

The subject of data set [3] is L1210 leukemia cells. Description: cross-resistance in vitro, MTT assay on sensitive and adriamycin (doxorubicin)-resistant L1210 leukemia cells. Type of data set: cell-based, mouse. As to conditions: 3d incubation; for Degree of resistance of the cell: IC50 resistant subline relative to IC50 sensitive line. The procedure: L1210, A 549 or HT 29 in the exponential phase of growth are incubated in a cell density of 5×10^3 cells/ml in RPMI 1640 in a 96-well microtiter plate for 72 hours with various concentrations of the test substance at 37° C., 5% CO2 and 95% relative humidity. Control experiments contain merely growth medium in place of the test substance. Each test substance and the control are determined in quadruplicate. After incubation for 65 hours, 50 μl of MTT solution (2.5 mg/ml in phosphate-buffered saline) are added. In the presence of live cells, MTT is reduced to a dark-red insoluble formazan dyestuff. This reaction is complete after 7 hours (L1210 cells) or after 24 hours (A 549, HT 29 cells), and the supernatant medium is carefully removed by aspiration. The insoluble dyestuff is dissolved by addition of 100 μl of DMSO, and the extinction of the resulting solution at a wavelength of 492 nm is then measured for each well in a Flow 340 CC multiscan photometer.
The ratio of the extinctions of treated and untreated cells yields a dose-effect plot from which the concentration which just kills 50% of the cells (IC50) can be read off. The coefficient of variation for repeat tests is less than 15%.
The cross-resistance between the particular test compound and doxorubicin is determined using the MTT assay (for method, see above) on sensitive and resistant L1210 leukemia cells.
The resistant cell line was established by incubation of a sensitive subline with stepwise increasing concentrations of the reference compound.
The IC50 of the test compound on the resistant subline relative to the IC50 of the sensitive subline yields the degree of resistance both for the test compound (DR(T)) and for the reference compound (DR(R)) in accordance with the formula [formula]
In addition, the degree of cross-resistance (DCR) for the test compound is calculated in accordance with the formula [formula]
In the case where the loss of activity of the test compound on the resistant line related to the sensitive line is greater than that of the reference compound, a degree of cross-resistance of more than 100% is possible.
(In general: Tetrazolium dyes change colour on reduction, which living cells bring about.)

Where [4] appears, read: 168 h, continuous exposure, 7 days, L1210 colony formation, read-out: Long-term incubation IC50.
Setting [5] is: 1 h incubation, then 7 days colony formation, L1210, read-out: 1 h Incubation IC50.

The term IC50 denotes the midpoint of a concentration-inhibition curve. The LD50 is the dose at which mortality reaches 50%.

In brackets after ≈: the same amount, converted by molar mass. Like-named read-outs stand apart in the source and are kept apart here.

Regarding `CC[C@@]1(O)C[C@H](O[C@H]2C[C@H](N(C)C)[C@H](O)[C@H](C)O2)c2c(O)c3c(c(O)c2[C@H]1O[C@H]1C[C@H](N(C)C)[C@H](OC(=O)c2ccc(OC)cc2)[C@H](C)O1)C(=O)c1cccc(O)c1C3=O` [Compound 12b, 7-O-α-L-rhodosaminyl-10-O-[4"-O-(p-methoxybenzoyl)-α-L-rhodosaminyl]-β-rhodomycinone], the IC50 in data set [1] (setting [4]) was found to be 0.011 µg/mL (≈ 0.0132 µM). Also, the IC50 in data set [1] (setting [5]) was 0.1 µg/mL (≈ 0.12 µM). For the same compound, the LD50 in data set [2] (three intraperitoneal administrations with an interval of three days between each, read-out: Approximative toxicity LD50, 3xip, q3d) was 5.33 to 10.7 mg/kg. In data set [3], the “Degree of cross-resistance to adriamycin” value turned out to be 5.0% and the “Degree of resistance of the cell” value is reported as 5.0.

For the compound `CC[C@@]1(O)C[C@H](O[C@H]2C[C@H](N(C)C)[C@H](OC(C)=O)[C@H](C)O2)c2c(O)c3c(c(O)c2[C@H]1O)C(=O)c1cccc(O)c1C3=O` [Compound 21, 7-O-(4'-O-Acetyl-α-L-rhodosaminyl)-β-rhodomycinone], the IC50 in data set [1] (setting [4]) was 0.08 µg/mL (≈ 0.137 µM). The IC50 in data set [1] (setting [5]) stood at 0.7 µg/mL (≈ 1.2 µM). Moreover, in data set [2] (one intraperitoneal administration, read-out: Approximative toxicity LD50, 1xip), the LD50 lay in the range of 1 to 10 mg/kg. In data set [3], the “Degree of cross-resistance to adriamycin” value was determined as 2.4% and the “Degree of resistance of the cell” value came out at 2.2.

(Values after patent publication US4914191A, “Anthracycline derivatives having cytostatic activity” (Behringwerke Aktiengesellschaft, priority 1987, dated 1990).)
